Laboratory results taken from patent publication EP3833345B1, “SMALL MOLECULE-INHIBITORS OF 6-PHOSPHOFRUCTO-1-KINASE FOR REDUCING LACTATE GENERATION BY CANCER CELLS” (Kemijski Institut, priority 2018, dated 2020).

Columns and labels:
Jurkat cells = assay: Seahorse XF assay (ECAR and OCR) in Jurkat cells; assay type: cell-based, human; details: 100 µM added 24 hours before the experiment; treated versus untreated cells
Method: The efficiency of Inhibitors No. 3 and No. 9 was also tested by the determinations of glycolytic capacities in Jurkat cells in the presence and absence of inhibitors. For this purpose, Seahorse XF assay (Agilent Technology) was performed that enables non-destructive measurements of extracellular acidification rate (ECAR) and oxygen consumption rate (OCR) of tested cells. The cells were incubated in […] GlutaMAX medium with 10% FBS and 24 hours before the experiment inhibitors were added (100 µM). Non-adherent Jurkat cells (1×10^6 per mL) were stuck to the bottom of the wells by poly-I-lysine. The experiment was conducted essentially as recommended by Seahorse XF protocol and after 20 minutes of incubation, 1 µM of oligomycin A (ATP synthase inhibitor) and 0,25 µM of Carbonyl cyanide-4-(trifluoromethoxy)phenylhydrazone (FCCP) (mitochondrial oxidative phosphorylation uncoupler) were added to the cells. […] Reduced lactate excretion by the cells treated with both inhibitors might be responsible for reduced ECARs. Although the addition of oligomycin A and FCCP increased the extracellular acidification rate by the cells treated with both inhibitors, similar increase of ECAR was also observed in the untreated cells. […] It implies that inhibited PFK1 enzymes might reduce glycolytic flux and prevent the need for pyruvate reduction into lactate by re-oxidizing redundant cytosolic NADH. Under such conditions pyruvate can enter mitochondria, replenishing tri-carboxylic acids (TCA) cycle and fuelling oxidative respiration.

COLO 829 cells = assay: lactate excretion by COLO 829 cells; assay type: cell-based; details: inhibitor added 8 hours after inoculation, then at 24-hour intervals; low concentrations (from 10 µM)
[1] = target: T1, native human (85 kDa) 6-phosphofructo-1-kinase (PFK-M), nPFK-M (Homo sapiens, UniProt P08237); assay: in vitro inhibition of purified recombinant native PFK-M enzyme; details: inhibitor range 10 - 50 µM, Figure 3
T1 sequence (P08237 1-780): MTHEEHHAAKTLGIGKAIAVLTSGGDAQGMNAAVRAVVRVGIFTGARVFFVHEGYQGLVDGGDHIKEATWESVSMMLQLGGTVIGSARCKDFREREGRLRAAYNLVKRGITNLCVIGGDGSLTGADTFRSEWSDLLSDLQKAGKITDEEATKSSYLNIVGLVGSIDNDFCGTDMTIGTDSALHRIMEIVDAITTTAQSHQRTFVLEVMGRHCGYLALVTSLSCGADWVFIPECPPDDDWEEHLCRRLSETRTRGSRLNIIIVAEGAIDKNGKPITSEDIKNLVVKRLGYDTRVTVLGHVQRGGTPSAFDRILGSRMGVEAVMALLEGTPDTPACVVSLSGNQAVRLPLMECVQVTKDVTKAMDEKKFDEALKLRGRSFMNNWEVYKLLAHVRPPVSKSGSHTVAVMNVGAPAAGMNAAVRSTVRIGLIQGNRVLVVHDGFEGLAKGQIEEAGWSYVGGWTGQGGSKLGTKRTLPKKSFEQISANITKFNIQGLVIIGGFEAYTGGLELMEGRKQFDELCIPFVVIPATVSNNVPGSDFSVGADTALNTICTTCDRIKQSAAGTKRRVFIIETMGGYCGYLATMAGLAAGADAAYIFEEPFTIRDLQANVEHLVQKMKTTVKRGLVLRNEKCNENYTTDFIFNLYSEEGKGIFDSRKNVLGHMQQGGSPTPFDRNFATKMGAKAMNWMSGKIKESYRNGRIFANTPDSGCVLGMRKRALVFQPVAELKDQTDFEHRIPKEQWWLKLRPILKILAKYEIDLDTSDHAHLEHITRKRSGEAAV
Method: Initially, all compounds were tested in vitro for inhibition of the purified human native enzyme (85 kDa) and modified cancer-specific shorter fragments (47 kDa) of muscle type PFK-M, followed by measurements of the purified native enzyme (85 kDa) and shorter fragments (70 kDa) of liver type PFK-L isoform.
Selected compounds were tested for in vitro inhibition of isolated recombinant human native and modified PFK-M enzymes.
The yeast transformant encoding the native human PFK-M enzyme was designated as nPFKM strain while transformant encoding cancer specific shorter fragments was designated as sfPFKM strain. […] For the enzymatic measurements, all the substrates (F6P and ATP), auxiliary enzymes, NADH and inhibitors dissolved in DMSO were added first to the buffer with PEG. After thorough mixing of the buffer with all ingredients, the enzymatic reaction started by the insertion of the purified recombinant enzymes.

## O=C(CSc1nnc(-c2ccc3c(c2)OCO3)o1)Nc1ccon1 [Inhibitor No. 3, 2-[(5-benzo[1,3]dioxol-5-yl-1,3,4-oxadiazol-2-yl)sulfanyl]-N-isoxazol-3-yl-acetamide]
Jurkat cells
  ECAR and OCR values prior to the addition of oligomycin A and FCCP: untreated Jurkat cells revealed higher ECAR and OCR values
COLO 829 cells
  lactate formation in COLO 829 cells, sequential re-insertion: strong reduction of lactate formation
[1]
  inhibition of the activity of native nPFK-M enzyme: remarkably reduced also the activity of native nPFK-M enzyme
